Data set [1] concerns human HSC long term repopulating potential. The experiment in a line: secondary transplant (2T) in NSG mice, long term repopulating potential (LTRP). It is filed as in vivo. The note with it: for secondary engraftment potential / long term repopulating potential (LTRP): 2T NSG mice, 6 weeks, inhibitor present during ex vivo culture, all time points; for number of 2T mice with human cell engraftment (>0.01% hCD45+ cells in BM): 6 weeks post-secondary transplant. The method, then: (§1) FIG. 2. A preclinical model for studying adult human HSC ex vivo manipulation and gene transfer and its effect on LTRP. (Panel A) Freshly isolated or thawed mobilized peripheral blood (MPB) derived CD34+ cells were utilized for the study. Two different protocols were utilized for the study where lentivirus (LV) or γ-Retrovirus (RV) mediated gene transfer was performed at indicated time points. 0 h, 18-24 h, 36-42 h, and 72-96 h indicates the total amount of time where cells were exposed in the ex vivo culture after CD34 isolation before injection into NSG mice. (Panel B) After indicated time in culture and transduction, 1 million CD34+ starting equivalent cells were transplanted per NSG mouse after TBI intravenously (primary transplant=1T). Primary human engraftment and multi-lineage reconstitution was analyzed in mice at indicated time periods after bone marrow harvest at 6 and 12 weeks (wks) from left and right femurs, and after sacrifice at 24 wks, from all bones. A portion of cells were analyzed for FACS and the rest were depleted of mouse CD45+ cells and transplanted one to one, into secondary mice (secondary transplant=2T).
Panel B: Number of 2T mice engrafted (>0.01% hCD45^+ cells in BM) are shown above the middle bar and those non-engrafted below.
Human MPB derived CD34^+ cells either fresh or thawed were cultured and transduced with lentivirus (LV) or retrovirus (RV) expressing GFP for the indicated time points. Cells were harvested and phospho-p38MAPK was detected by flow cytometry. Panel A: Representative histogram plot of p-p38 (number represents mean fluorescence intensity (MFI). Panel B: Fold change of p-p38 MAPK MFI (±SEM) in human CD34^+ 38^− 90^+ 45RA^− 49f^+ cells with or without p38 inhibitor (p38i). Panel C: Human CD45^+ engraftment in NSG mice with (striped bars) or without p38 inhibitor (solid bars) after 24 weeks of primary transplant. Panel D: Human engraftment in NSG mice with or without p38i after 6 weeks of secondary transplant. Engrafted mice (>0.01% CD45^+ cells in the whole bone marrow) over total mice transplanted is shown as percentage. Human CD33^+ myeloid (Panels E and F), CD19^+ B-Lymphoid (Panels G and H) and CD34^+ hematopoietic stem/progenitor cells (HSPCs) (Panels I and J) re-constitution with or without p38i (Panels E, G, and I): GFP^− untransduced; (Panels F, H & J): GFP^+ transduced in primary transplanted mice 24 weeks post transplantation are shown. Data expressed as mean±SEM from 5 independent experiments (n=12-21 mice per group). Statistics: Student's t test, *p<0.05, **p<0.01, ***p<0.001.
Engrafted mice (>0.01% CD45^+ cells in the whole bone marrow) are shown above the middle bar, engrafted/Total mice number is shown on the side. […] Data expressed as mean±SEM from 5 independent experiments (n=7-29 mice per group). […]

The test system of the next data set is human CD34+38-90+ cells. The experiment in a line: apoptosis, annexin V+ CD34+38-90+ cells. The class given is cell-based. Particulars: with or without p38i. As for the experimental part: Human CD34^+ cells were cultured and transduced as described in FIG. 13, panel A. Harvested cells were stained with trypan blue for viability, total CD34+ cell number (Panel A), fold change in percent human CD34^+ 38^− 90^+ 45RA^− 49f^+ (HSCs) (Panel B), percent annexin V^+ (apoptotic) CD34^+38^− 90^+ cells (Panel C), fold change in transduction efficiency (based on GFP marker percentage) over non-treated CD34^+38^− 90^+ cells (Panel D), fold change in MitoSOX MFI in CD34^+38^− 90^+ cells are shown (Panel E). Data represents mean±SEM. Statistics: Student's t test, […], *p<0.05, **p<0.01, ***p<0.001.

In data set [2] the test system is human CD45+ cell engraftment in NSG mice. The experiment in a line: primary transplant (1T) of cultured hCD34+ cells into NSG mice, hCD45+ engraftment in bone marrow. The note with it: for hCD45+ cell engraftment in bone marrow of 1T mice: 24 weeks after primary transplant of cultured hCD34+ cells with/without inhibitor. It is filed as in vivo. The method, then: as §1
Panel A: hCD45^+ cell engraftment in bone marrow of 1T mice at 24 weeks following transplant of cultured hCD34^+ cells with/without p38 inhibitor Birb796. Panel B: Number of 2T mice engrafted (>0.01% hCD45^+ cells in BM) are shown above the middle bar and those non-engrafted below.
A xenograft model was developed to study hHSC engraftment. In the xenograft model of adult human HSC, CD34^+ cells were derived and isolated from fresh MPB. The fresh CD34^+ cells were either directly transplanted into immunocompromised NSG mice or cultured with human cytokines and then transduced either with lentivirus or retrovirus. […] The multipotential human hematopoietic progeny (hCD45^+) following huCD34^+ transplant in NSG mice were then measured to confirm that the model human HSC engraftment from adult (mobilized peripheral blood) CD34^+ HSC/P that mimics the results observed in gene therapy clinical trials. […]

Experimental findings from patent publication US20180325947A1, “USE OF MAPK INHIBITORS TO REDUCE LOSS OF HEMATOPOIETIC STEM CELLS DURING EX VIVO CULTURE AND/OR GENETIC MANIPULATION” (Children's Hospital Medical Center, priority 2015, published 2018) are described below.

Molecules are shown by their SMILES. “Also recorded” adds a separate entry of the source.

For `Cc1ccc(-n2nc(C(C)(C)C)cc2NC(=O)Nc2ccc(OCCN3CCOCC3)c3ccccc23)cc1` [BIRB-796, 1-[5-tert-butyl-2-(4-methylphenyl)pyrazol-3-yl]-3-[4-(2-morpholin-4-ylethoxy)naphthalen-1-yl]urea], the results for the “secondary engraftment potential / long term repopulating potential (LTRP)” value in data set [1] and in data set [1] (listed as p38i) were “retains” and “retain; also recorded: restores; also recorded: rescues”, respectively. The “number of 2T mice with human cell engraftment (>0.01% hCD45+ cells in BM)” value in data set [1] was “significantly increase”; in data set [1] (listed as Birb796) it was “increases”. In addition, the “apoptosis in CD34+38-90+ population” value in the data set with human CD34+38-90+ cells is “no difference”. The “human CD45+ cell engraftment in NSG BM, 1T” value in data set [2] (24 weeks after 1T, 72-96 h LV and RV groups) is “slightly improved”. Also, the “hCD45+ cell engraftment in bone marrow of 1T mice” value in data set [2] was “not affecting”; in data set [2] (listed as Birb796), “significantly increases”.
